Test results: US9694016B2 (Novartis AG, priority 2013, dated 2017)
Read-outs that look alike come from different tables or passages of the source.

Target: b-Raf (V600E) (Homo sapiens (Human), UniProt P15056, V600E)
Conditions: read-out: b-Raf IC-50, AlphaScreen
[1] = 60 min pre-incubation, 3 hours reaction
[2] = 60 min pre-incubation, reaction 3 hours at room temperature

Chain of b-Raf (V600E) (P15056 whole entry V600E): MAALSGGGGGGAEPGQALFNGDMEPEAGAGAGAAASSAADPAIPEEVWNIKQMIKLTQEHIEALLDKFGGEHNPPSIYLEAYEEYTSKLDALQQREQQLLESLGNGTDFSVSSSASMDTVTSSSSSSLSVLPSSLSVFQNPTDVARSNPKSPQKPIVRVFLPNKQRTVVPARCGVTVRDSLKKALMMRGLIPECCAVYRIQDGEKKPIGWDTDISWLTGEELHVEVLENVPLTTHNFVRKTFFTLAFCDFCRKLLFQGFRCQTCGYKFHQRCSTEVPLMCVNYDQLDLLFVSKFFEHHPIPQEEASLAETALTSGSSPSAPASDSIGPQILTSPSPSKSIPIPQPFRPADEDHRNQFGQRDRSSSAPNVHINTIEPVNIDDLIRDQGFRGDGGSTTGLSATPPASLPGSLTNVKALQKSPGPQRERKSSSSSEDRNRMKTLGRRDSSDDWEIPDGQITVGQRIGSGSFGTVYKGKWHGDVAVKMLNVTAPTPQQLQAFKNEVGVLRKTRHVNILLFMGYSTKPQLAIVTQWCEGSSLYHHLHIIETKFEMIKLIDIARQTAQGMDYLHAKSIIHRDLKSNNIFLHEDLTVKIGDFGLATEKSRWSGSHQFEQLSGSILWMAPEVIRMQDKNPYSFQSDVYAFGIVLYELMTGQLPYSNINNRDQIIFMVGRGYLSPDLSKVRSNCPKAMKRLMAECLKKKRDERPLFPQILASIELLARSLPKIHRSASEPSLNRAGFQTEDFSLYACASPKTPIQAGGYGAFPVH

**Q.** `CCNc1nc(-c2cc(C(=O)Nc3cccc(C(F)F)c3)ccc2C)cc(N2CCOCC2)n1` [Example 733, N-(3-(difluoromethyl)phenyl)-3-(2-(ethylamino)-6-morpholinopyrimidin-4-yl)-4-methylbenzamide] was tested. Which IC50 [1] did it give?
**A.** 0.8 nM

**Q.** For `Cc1ncc(NC(=O)c2ccnc(C(F)F)c2)cc1-c1cc(N2CCOCC2)nc(N2CCOCC2)c1` [Example 1122, 2-(difluoromethyl)-N-(2-methyl-2′,6′-dimorpholino-[3,4′-bipyridin]-5-yl)isonicotinamide], which IC50 [2] is on record?
**A.** 3.31 nM

**Q.** For `Cc1ccc(NC(=O)c2ccnc(C(F)(F)F)c2)cc1-c1cc(N2CCOCC2)nc(N2CCC(O)C2)c1` (stereo not drawn) [Example 1130, N-(3-(2-(3-hydroxypyrrolidin-1-yl)-6-morpholinopyridin-4-yl)-4-methylphenyl)-2-(trifluoromethyl)isonicotinamide], which IC50 [2] is on record?
**A.** 2.24 nM

**Q.** `CCOc1ncc(-c2cc(NC(=O)c3cccc(S(C)(=N)=O)c3)ccc2C)cc1N1CCOCC1` (stereo not drawn) [Example 975, N-(3-(6-ethoxy-5-morpholinopyridin-3-yl)-4-methylphenyl)-3-(S-methylsulfonimidoyl)benzamide] was tested. Which IC50 [2] did it give?
**A.** 1.81 nM

**Q.** Which IC50 (Table 2, 3 hours reaction) does the source give for `Cc1ncc(NC(=O)c2cccc(C(F)(F)F)c2)cc1-c1cnc(O[C@H]2CC[C@H](O)CC2)c(N2CCOCC2)c1` [Example 316, N-(6′-(((1r,4r)-4-hydroxycyclohexyl)oxy)-2-methyl-5′-morpholino-[3,3′-bipyridin]-5-yl)-3-(trifluoromethyl)benzamide] here?
**A.** 3.1 nM

**Q.** `Cc1ccc(NC(=O)c2ccnc(C(F)(F)F)c2)cc1-c1cc(-c2c(C)n[nH]c2C)nc(N2CCOCC2)c1` [Example 1127, N-(3-(2-(3,5-dimethyl-1H-pyrazol-4-yl)-6-morpholinopyridin-4-yl)-4-methylphenyl)-2-(trifluoromethyl)isonicotinamide] was tested. Which IC50 [2] did it give?
**A.** 1.48 nM

**Q.** Which IC50 (Table 2, 3 hours reaction) does the source give for `Cc1ccc(NC(=O)c2ccnc(C(C)(C)C#N)c2)cc1-c1cc(N2CCOCC2)c(=O)n(CCC#N)c1` [Example 335, N-(3-(1-(2-cyanoethyl)-5-morpholino-6-oxo-1,6-dihydropyridin-3-yl)-4-methylphenyl)-2-(2-cyanopropan-2-yl)isonicotinamide] here?
**A.** 4.4 nM

**Q.** `Cc1ccc(NC(=O)c2cccc(C(F)F)c2)cc1-c1cc(N2CCOCC2)nc(N2CC(O)C2)c1` [Example 1077, 3-(difluoromethyl)-N-(3-(2-(3-hydroxyazetidin-1-yl)-6-morpholinopyridin-4-yl)-4-methylphenyl)benzamide] was tested. Which IC50 [2] did it give?
**A.** 0.85 nM

**Q.** `Cc1ncc(C(=O)Nc2cccc(C(F)(F)F)c2)cc1-c1cc(N2CCOCC2)c(=O)n(C)c1` [Example 443, 1′,2-dimethyl-5′-morpholino-6′-oxo-N-(3-(trifluoromethyl)phenyl)-1′,6′-dihydro-[3,3′-bipyridine]-5-carboxamide] was tested. Which IC50 [1] did it give?
**A.** 6.2 nM

**Q.** `CCN1CCN(c2cc(C(=O)Nc3ccc(C)c(-c4cc(N5CCOCC5)c(=O)n(C)n4)c3)cc(C(F)(F)F)c2)CC1` [Example 649, 3-(4-ethylpiperazin-1-yl)-N-(4-methyl-3-(1-methyl-5-morpholino-6-oxo-1,6-dihydropyridazin-3-yl)phenyl)-5-(trifluoromethyl)benzamide] was tested. Which IC50 [1] did it give?
**A.** 4.6 nM

**Q.** How did the IC50 [1] turn out when `CCOc1nnc(-c2cc(NC(=O)c3ccnc(C(C)(C)C#N)c3)ccc2C)cc1N1CCOC[C@@H]1C` [Example 572, (S)-2-(2-cyanopropan-2-yl)-N-(3-(6-ethoxy-5-(3-methylmorpholino)pyridazin-3-yl)-4-methylphenyl)isonicotinamide] was run?
**A.** 3.8 nM

**Q.** Which IC50 [1] does the source give for `Cc1ccc(NC(=O)c2ccnc(C(C)(C)C#N)c2)cc1-c1cc(N2CCOCC2)nc(NC2CNC2)n1` [Example 786, N-(3-(2-(azetidin-3-ylamino)-6-morpholinopyrimidin-4-yl)-4-methylphenyl)-2-(2-cyanopropan-2-yl)isonicotinamide] here?
**A.** 14.9 nM

**Q.** `CCNc1nc(-c2cc(NC(=O)c3ccnc(C(C)(C)O)c3)cnc2C)cc(N2CCOCC2)n1` [Example 723, N-(5-(2-(ethylamino)-6-morpholinopyrimidin-4-yl)-6-methylpyridin-3-yl)-2-(2-hydroxypropan-2-yl)isonicotinamide] was tested. Which IC50 [1] did it give?
**A.** 34.8 nM

**Q.** Which IC50 [1] does the source give for `Cc1ncc(NC(=O)c2cccc(C(F)(F)F)c2)cc1-c1ccc(S(C)(=O)=O)c(N2CCOCC2)c1` [Example 687, N-(6-methyl-5-(4-(methylsulfonyl)-3-morpholinophenyl)pyridin-3-yl)-3-(trifluoromethyl)benzamide] here?
**A.** 0.8 nM

**Q.** With `Cc1ccc(NC(=O)c2cnnc(C(F)(F)F)c2)cc1-c1c(F)c(NCCO)nc(N2CCOCC2)c1F` [Example 1015, N-(3-(3,5-difluoro-2-((2-hydroxyethyl)amino)-6-morpholinopyridin-4-yl)-4-methylphenyl)-6-(trifluoromethyl)pyridazine-4-carboxamide] as the compound, how does the IC50 [2] read?
**A.** 29.5 nM

**Q.** Which IC50 [1] does the source give for `Cc1ccc(NC(=O)c2ccnc(N(C)CCO)c2)cc1-c1cc(N2CCOCC2)c(=O)n(C)c1` [Example 456] here?
**A.** 3.3 nM

**Q.** With `Cc1ncc(NC(=O)c2ccnc(C(C)(F)F)c2)cc1-c1cc(N2CCO[C@H](CO)C2)n(C)c(=O)c1` [Example 530, (S)-2-(1,1-difluoroethyl)-N-(6′-(2-(hydroxymethyl)morpholino)-1′,2-dimethyl-Z-oxo-1′,2′-dihydro-[3,4′-bipyridin]-5-yl)isonicotinamide] as the compound, how does the IC50 [1] read?
**A.** 51.3 nM

**Q.** For `Cc1ccc(NC(=O)c2ccnc(C(C)(C)O)c2)cc1-c1cc(N2CCOCC2)nc(N2CC(O)C2)c1` [Example 1098, N-(3-(2-(3-hydroxyazetidin-1-yl)-6-morpholinopyridin-4-yl)-4-methylphenyl)-2-(2-hydroxypropan-2-yl)isonicotinamide], which IC50 [2] is on record?
**A.** 5.75 nM

**Q.** `CC(F)(F)c1cc(C(=O)Nc2c[nH]c(=O)c(-c3ccnc(N4CCOCC4)c3)c2)ccn1` [Example 89, 2-(1,1-difluoroethyl)-N-(2′-morpholino-2-oxo-1,2-dihydro-[3,4′-bipyridin]-5-yl)isonicotinamide] was tested. Which IC50 (Table 2, 3 hours reaction) did it give?
**A.** 25000 nM

**Q.** With `CCNc1nc(-c2cc(NC(=O)c3ccccc3)ccc2C)cc(N2CCOCC2)n1` [Example 695, N-(3-(2-(ethylamino)-6-morpholinopyrimidin-4-yl)-4-methylphenyl)benzamide] as the compound, how does the IC50 [1] read?
**A.** 4 nM

**Q.** With `Cc1ccc(NC(=O)c2ccnc(C(C)(C)C#N)c2)cc1-c1cc(N2CC3CC(C2)O3)c(=O)n(C)c1` [Example 465, N-(3-(5-(6-oxa-3-azabicyclo[3.1.1]heptan-3-yl)-1-methyl-6-oxo-1,6-dihydropyridin-3-yl)-4-methylphenyl)-2-(2-cyanopropan-2-yl)isonicotinamide] as the compound, how does the IC50 [1] read?
**A.** 100 nM

**Q.** With `CCN(C(=O)c1cccc(C(F)(F)F)c1)c1cnc(C)c(-c2cnc(OC3CCOCC3)c(N3CCOCC3)c2)c1` [Example 329, N-ethyl-N-(2-methyl-5′-morpholino-6′-((tetrahydro-2H-pyran-4-yl)oxy)-[3,3′-bipyridin]-5-yl)-3-(trifluoromethyl)benzamide] as the compound, how does the IC50 (Table 2, 3 hours reaction) read?
**A.** 1100 nM

**Q.** How did the IC50 (Table 2, 3 hours reaction) turn out when `CCn1cc(-c2cc(NC(=O)c3ccnc(C(C)(C)C#N)c3)cnc2C)cc(N2CCOCC2)c1=O` [Example 332, 2-(2-cyanopropan-2-yl)-N-(1′-ethyl-2-methyl-5′-morpholino-6′-oxo-1′,6′-dihydro-[3,3′-bipyridin]-5-yl)isonicotinamide] was run?
**A.** 23.2 nM

**Q.** Which IC50 (Table 2, 3 hours reaction) does the source give for `CCOc1ncc(-c2cc(NC(=O)c3cc(C4CC4)on3)cnc2C)cc1N1CCOCC1` [Example 245, 5-cyclopropyl-N-(6′-ethoxy-2-methyl-5′-morpholino-[3,3′-bipyridin]-5-yl)isoxazole-3-carboxamide] here?
**A.** 1.3 nM

**Q.** For `CCNc1nc(-c2cc(NC(=O)c3ccnc(C(C)(C)O)c3)ccc2C)cc(N2CCOCC2)n1` [Example 705, N-(3-(2-(ethylamino)-6-morpholinopyrimidin-4-yl)-4-methylphenyl)-2-(2-hydroxypropan-2-yl)isonicotinamide], which IC50 [1] is on record?
**A.** 4.1 nM

**Q.** For `CCC(F)(F)c1cc(C(=O)Nc2ccc(C)c(-c3cc(N4CCOCC4)c(=O)n(C)n3)c2)ccn1` [Example 643, 2-(1,1-difluoropropyl)-N-(4-methyl-3-(1-methyl-5-morpholino-6-oxo-1,6-dihydropyridazin-3-yl)phenyl)isonicotinamide], which IC50 [1] is on record?
**A.** 1.3 nM

**Q.** Which IC50 [1] does the source give for `Cc1ncc(NC(=O)c2cccc(C(F)(F)F)c2)cc1-c1cc(N2CCOCC2)nc(NCCO)n1` [Example 735, N-(5-(2-((2-hydroxyethyl)amino)-6-morpholinopyrimidin-4-yl)-6-methylpyridin-3-yl)-3-(trifluoromethyl)benzamide] here?
**A.** 4.3 nM

**Q.** With `CCNc1nc(-c2cc(NC(=O)c3ccnc(C(C)(C)C#N)c3)cnc2C)cc(N2CCOCC2)n1` [Example 718, 2-(2-cyanopropan-2-yl)-N-(5-(2-(ethylamino)-6-morpholinopyrimidin-4-yl)-6-methylpyridin-3-yl)isonicotinamide] as the compound, how does the IC50 [1] read?
**A.** 8.4 nM

**Q.** Which IC50 (Table 2, 3 hours reaction) does the source give for `Cn1cc(-c2cc(NC(=O)c3cccc(C(F)F)c3)ccc2Cl)cc(N2CCOCC2)c1=O` [Example 412, N-(4-chloro-3-(1-methyl-5-morpholino-6-oxo-1,6-dihydropyridin-3-yl)phenyl)-3-(difluoromethyl)benzamide] here?
**A.** 0.8 nM

**Q.** Which IC50 [1] does the source give for `Cc1ncc(NC(=O)c2cnnc(C(F)(F)F)c2)cc1-c1cc(N2CCOCC2)n2nccc2n1` [Example 801, N-(6-methyl-5-(7-morpholinopyrazolo[1,5-a]pyrimidin-5-yl)pyridin-3-yl)-6-(trifluoromethyl)pyridazine-4-carboxamide] here?
**A.** 3 nM

**Q.** Which IC50 (Table 2, 3 hours reaction) does the source give for `Cc1ccc(NC(=O)c2cccc(C(F)(F)F)c2)cc1-c1cc(N2CCOCC2)cnn1` [Example 59, N-(4-methyl-3-(5-morpholinopyridazin-3-yl)phenyl)-3-(trifluoromethyl)benzamide] here?
**A.** 2.8 nM

**Q.** `Cc1ncc(NC(=O)c2cc(CN(C)C)cc(C(F)(F)F)c2)cc1-c1ccc(C#N)c(N2CCOCC2)c1` [Example 685, N-(5-(4-cyano-3-morpholinophenyl)-6-methylpyridin-3-yl)-3-((dimethylamino)methyl)-5-(trifluoromethyl)benzamide] was tested. Which IC50 [1] did it give?
**A.** 21.4 nM

**Q.** Which IC50 (Table 2, 3 hours reaction) does the source give for `Cc1ncc(NC(=O)c2ccnc(C(F)(F)F)c2)cc1-c1cnc(Cl)c(N2CCOCC2)c1` [Example 291, N-(6′-chloro-2-methyl-5′-morpholino-[3,3′-bipyridin]-5-yl)-2-(trifluoromethyl)isonicotinamide] here?
**A.** 2.3 nM
